# Results as given in PubChem BioAssay (NCI).
# Values joined by “and” are separate entries in the source; they are usually repeats but may differ in a detail not shown here. Equal values may be shown once.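 Where inhibition never reached the appropriate level, the endpoint shown equals the highest concentration tested. Otherwise, values were interpolated linearly from a five-concentration, 48-hour dose response in 96-well plates. GI50: concentration for 50% inhibition of growth. Definition used: TGI = concentration required for complete inhibition of growth.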
# Tested on: SNB-75 CNS
# Experiment: growth of human tumour cells (NCI), 48 h
SMILES,TGI,GI50
CCCCC(=O)OCC(=O)[C@]1(O)Cc2c(O)c3c(c(O)c2[C@@H](OC2CC(NC(=O)C(F)(F)F)C(O)C(C)O2)C1)C(=O)c1c(OC)cccc1C3=O (some centres not stated),4.37 µM,
C[C@]12CC[C@H](O)CC1=CC[C@@H]1C2CC[C@]2(C)C(=O)N(N)C(=O)CC12 (some centres not stated),> 100 µM,
C=C(CN1CCN(c2ccc(Cl)cc2F)CC1)c1ccc(C(=O)Nc2ccccc2N)cc1,> 46.1 µM,11400 nM
CC(C)=CC(=O)C1c2cccc(O)c2C(=O)c2c(O)cc(C)cc21 (configuration not stated),4.68 µM,
COC(CN1C(=O)c2cccc3cccc(c23)C1=O)OC,> 100 µM,
O=C(Nc1ccccc1)NS(=O)(=O)c1ccc(-n2nc3c(c2-c2cccs2)Cc2ccccc2-3)cc1,> 100 µM,70400 nM
O=C1C=C(Cl)C(=O)C(c2ccc(Cl)cc2)=C1,59.8 µM,
Cc1ccc2c(=O)cc(-c3ccc(F)cc3)[nH]c2n1,49.6 µM,
CCOc1ccc(NC(=O)C(=O)CC(=O)c2c[n+](=O)c3cc(C)c(C)cc3n2[O-])cc1,> 100 µM,
Cn1cc(C2=C(c3cn(C)c4ncccc34)C(=O)NC2=O)c2ccccc21,> 23.6 µM,669 nM
O=C1C(Cl)=C(Nc2cccc(Cl)c2)C(=O)N1Cc1ccc(Cl)cc1Cl,9.92 µM,1290 nM
O=C(/C=C/C12c3ccccc3C(c3ccccc31)C1C(=O)NC(=O)C12)c1ccncc1 (configuration not stated),10.9 µM,2190 nM
CC12CCC(O)CC1CCC1C2CCC2(C)C(C3=CC(=O)OC3)CCC12O (configuration not stated),28.7 µM,
COc1ccc2c(c1)/C(=C/c1c(C)nc3sc(C)nn13)C(=O)N2,7.14 µM,1580 nM
Cc1cc(I)cc(CN(C)CCCCN2CCCCC2)c1O,32.8 µM,15000 nM
Cc1ccc(C(=O)/C(=C/c2ccc([N+](=O)[O-])cc2)SCc2ccc(Cl)cc2)cc1,> 100 µM,20400 nM

SMILES,TGI,GI50
O=C(Nc1ccc(Cl)c(Cl)c1)Nc1ccc(Cl)c(Cl)c1,7.81 µM and 18.8 µM,2150 nM and 2850 nM
C#Cc1ccc(-n2c(/C=C/c3ccc(C(F)(F)F)cc3)nc3ncccc3c2=O)cc1,7.22 µM,1810 nM
COc1cc(/C=N/NC(=O)c2ccc(C(F)(F)F)nc2Nc2ccc(Cl)cc2C)ccc1O,21.3 µM,4790 nM
O=C(N/C(=C\c1ccc(/C=C(\NC(=O)c2ccccc2)c2nc3cc([N+](=O)[O-])ccc3[nH]2)cc1)c1nc2cc([N+](=O)[O-])ccc2[nH]1)c1ccccc1,> 100 µM,
COc1ccc(C(=O)Cn2c(C(=O)c3ccccc3)nc(-c3ccc(OC)cc3)c2-c2ccc(OC)cc2)cc1,38.4 µM,7710 nM
O=C1c2ccccc2C2C1N2C(=O)C(F)(F)F (configuration not stated),> 100 µM,
CCOC(=O)[C@]1(OC(C)=O)C[C@H](OC(C)=O)[C@@H](C(F)COP(=O)(OCc2ccccc2)OCc2ccccc2)O1 (some centres not stated),> 100 µM,
c1ccc2cc(-c3cc(-c4cc(-c5ccc6ccccc6c5)on4)no3)ccc2c1,> 100 µM,
CC1(c2ccc(F)cc2)C(C#N)C(=O)NC(=O)C1C#N (configuration not stated),> 100 µM,
O=C1C2C(C(=O)N1OS(=O)(=O)c1ccccc1)N(Cc1ccccc1)C(=O)N2Cc1ccccc1 (configuration not stated),> 100 µM,
COc1cc(-c2nn(-c3ccc(NC(=O)c4ccc(Cl)c(C(F)(F)F)c4)cc3)cc2-c2ccncc2)ccc1Cl,6.83 µM,1230 nM
CN(C)CC[N+]1=Nc2cccc3cccc(c23)N1,> 100 µM,
COc1ccc2c(C3=C(c4cn(C)c5ccccc45)C(=O)NC3=O)cn(C)c2c1,> 25 µM,56.7 nM
Cc1ccc(N=Nc2ccc(N(CCC#N)CCC#N)cc2C)c(Br)c1,> 100 µM,
COc1ccc2c3c1C(=O)CCCC3CO2 (configuration not stated),> 100 µM,

# Tested on: 786-0 renal
# Experiment: growth of human tumour cells (NCI), 48 h
SMILES,TGI,GI50
CCCCC(=O)OCC(=O)[C@]1(O)Cc2c(O)c3c(c(O)c2[C@@H](OC2CC(NC(=O)C(F)(F)F)C(O)C(C)O2)C1)C(=O)c1c(OC)cccc1C3=O (some centres not stated),1.35 µM,
C[C@]12CC[C@H](O)CC1=CC[C@@H]1C2CC[C@]2(C)C(=O)N(N)C(=O)CC12 (some centres not stated),> 100 µM,
C=C(CN1CCN(c2ccc(Cl)cc2F)CC1)c1ccc(C(=O)Nc2ccccc2N)cc1,> 100 µM,2.28 µM
CC(C)=CC(=O)C1c2cccc(O)c2C(=O)c2c(O)cc(C)cc21 (configuration not stated),16.1 µM,
COC(CN1C(=O)c2cccc3cccc(c23)C1=O)OC,> 100 µM,
O=C(Nc1ccccc1)NS(=O)(=O)c1ccc(-n2nc3c(c2-c2cccs2)Cc2ccccc2-3)cc1,35.2 µM,17.6 µM
O=C1C=C(Cl)C(=O)C(c2ccc(Cl)cc2)=C1,38.1 µM,
Cc1ccc2c(=O)cc(-c3ccc(F)cc3)[nH]c2n1,> 100 µM,42.2 µM
CCOc1ccc(NC(=O)C(=O)CC(=O)c2c[n+](=O)c3cc(C)c(C)cc3n2[O-])cc1,> 100 µM,
Cn1cc(C2=C(c3cn(C)c4ncccc34)C(=O)NC2=O)c2ccccc21,> 25 µM,8.72 µM
O=C1C(Cl)=C(Nc2cccc(Cl)c2)C(=O)N1Cc1ccc(Cl)cc1Cl,4.93 µM,
O=C(/C=C/C12c3ccccc3C(c3ccccc31)C1C(=O)NC(=O)C12)c1ccncc1 (configuration not stated),4.76 µM,1.94 µM
CC12CCC(O)CC1CCC1C2CCC2(C)C(C3=CC(=O)OC3)CCC12O (configuration not stated),4.78 µM,
COc1ccc2c(c1)/C(=C/c1c(C)nc3sc(C)nn13)C(=O)N2,> 100 µM,6.08 µM
Cc1cc(I)cc(CN(C)CCCCN2CCCCC2)c1O,25.4 µM,12.6 µM
Cc1ccc(C(=O)/C(=C/c2ccc([N+](=O)[O-])cc2)SCc2ccc(Cl)cc2)cc1,3.58 µM,1.66 µM

SMILES,TGI,GI50
O=C(Nc1ccc(Cl)c(Cl)c1)Nc1ccc(Cl)c(Cl)c1,14.4 µM and 13 µM,3.79 µM and 3.21 µM
C#Cc1ccc(-n2c(/C=C/c3ccc(C(F)(F)F)cc3)nc3ncccc3c2=O)cc1,3.7 µM,2.06 µM
COc1cc(/C=N/NC(=O)c2ccc(C(F)(F)F)nc2Nc2ccc(Cl)cc2C)ccc1O,9.93 µM,2.64 µM
O=C(N/C(=C\c1ccc(/C=C(\NC(=O)c2ccccc2)c2nc3cc([N+](=O)[O-])ccc3[nH]2)cc1)c1nc2cc([N+](=O)[O-])ccc2[nH]1)c1ccccc1,> 100 µM,
COc1ccc(C(=O)Cn2c(C(=O)c3ccccc3)nc(-c3ccc(OC)cc3)c2-c2ccc(OC)cc2)cc1,> 100 µM,46.1 µM
O=C1c2ccccc2C2C1N2C(=O)C(F)(F)F (configuration not stated),> 100 µM,
CCOC(=O)[C@]1(OC(C)=O)C[C@H](OC(C)=O)[C@@H](C(F)COP(=O)(OCc2ccccc2)OCc2ccccc2)O1 (some centres not stated),> 100 µM,39 µM and > 100 µM
c1ccc2cc(-c3cc(-c4cc(-c5ccc6ccccc6c5)on4)no3)ccc2c1,> 100 µM,
CC1(c2ccc(F)cc2)C(C#N)C(=O)NC(=O)C1C#N (configuration not stated),> 100 µM,
O=C1C2C(C(=O)N1OS(=O)(=O)c1ccccc1)N(Cc1ccccc1)C(=O)N2Cc1ccccc1 (configuration not stated),> 100 µM,
COc1cc(-c2nn(-c3ccc(NC(=O)c4ccc(Cl)c(C(F)(F)F)c4)cc3)cc2-c2ccncc2)ccc1Cl,2.86 µM,1.2 µM
CN(C)CC[N+]1=Nc2cccc3cccc(c23)N1,> 100 µM,
COc1ccc2c(C3=C(c4cn(C)c5ccccc45)C(=O)NC3=O)cn(C)c2c1,> 25 µM,0.255 µM
Cc1ccc(N=Nc2ccc(N(CCC#N)CCC#N)cc2C)c(Br)c1,61.5 µM,
COc1ccc2c3c1C(=O)CCCC3CO2 (configuration not stated),> 100 µM,

# Tested on: SK-MEL-5 melanoma
# Experiment: growth of human tumour cells (NCI), 48 h
SMILES,TGI,GI50
CCCCC(=O)OCC(=O)[C@]1(O)Cc2c(O)c3c(c(O)c2[C@@H](OC2CC(NC(=O)C(F)(F)F)C(O)C(C)O2)C1)C(=O)c1c(OC)cccc1C3=O (some centres not stated),1.64 µM,
C[C@]12CC[C@H](O)CC1=CC[C@@H]1C2CC[C@]2(C)C(=O)N(N)C(=O)CC12 (some centres not stated),> 100 µM,
C=C(CN1CCN(c2ccc(Cl)cc2F)CC1)c1ccc(C(=O)Nc2ccccc2N)cc1,> 22.4 µM,2300 nM
CC(C)=CC(=O)C1c2cccc(O)c2C(=O)c2c(O)cc(C)cc21 (configuration not stated),4.06 µM,
COC(CN1C(=O)c2cccc3cccc(c23)C1=O)OC,> 100 µM,
O=C(Nc1ccccc1)NS(=O)(=O)c1ccc(-n2nc3c(c2-c2cccs2)Cc2ccccc2-3)cc1,31.5 µM,15600 nM
O=C1C=C(Cl)C(=O)C(c2ccc(Cl)cc2)=C1,34.3 µM,
Cc1ccc2c(=O)cc(-c3ccc(F)cc3)[nH]c2n1,> 100 µM,31300 nM
CCOc1ccc(NC(=O)C(=O)CC(=O)c2c[n+](=O)c3cc(C)c(C)cc3n2[O-])cc1,> 100 µM,
Cn1cc(C2=C(c3cn(C)c4ncccc34)C(=O)NC2=O)c2ccccc21,> 17.6 µM,6270 nM
O=C1C(Cl)=C(Nc2cccc(Cl)c2)C(=O)N1Cc1ccc(Cl)cc1Cl,4.5 µM,321 nM
O=C(/C=C/C12c3ccccc3C(c3ccccc31)C1C(=O)NC(=O)C12)c1ccncc1 (configuration not stated),3.25 µM,1720 nM
CC12CCC(O)CC1CCC1C2CCC2(C)C(C3=CC(=O)OC3)CCC12O (configuration not stated),1.98 µM,
COc1ccc2c(c1)/C(=C/c1c(C)nc3sc(C)nn13)C(=O)N2,> 100 µM,1500 nM
